{"source": "paper PMC7570544", "about": "“Biological Activities and ADMET-Related Properties of Novel Set of Cinnamanilides” (Molecules, 2020)", "data": [{"tested_on": "Staphylococcus aureus ATCC 29213", "test": "In vitro antibacterial evaluation, broth microdilution MIC, reference strain", "assay_type": "cell-based", "conditions": "Staphylococcus aureus, ATCC29213; S. aureus ATCC 29213", "units": {"MIC": "µM"}, "values": [{"smiles": "O=C(/C=C/c1ccccc1)Nc1ccc(Br)c(Cl)c1", "note": "[Compound 11, (2E)-N-(4-Bromo-3-chlorophenyl)-3-phenylprop-2-enamide]", "MIC": "> 766"}, {"smiles": "O=C(/C=C/c1ccccc1)Nc1ccc(Br)cc1Br", "note": "[Compound 7, (2E)-N-(2,4-Dibromophenyl)-3-phenylprop-2-enamide]", "MIC": "> 677"}, {"smiles": "O=C(/C=C/c1ccccc1)Nc1ccc(Cl)cc1Br", "note": "[Compound 12, (2E)-N-(2-Bromo-4-chlorophenyl)-3-phenylprop-2-enamide]", "MIC": "> 766"}, {"smiles": "O=C(/C=C/c1ccccc1)Nc1ccc(Cl)cc1Cl", "note": "[Compound 4, (2E)-N-(2,4-Dichlorophenyl)-3-phenylprop-2-enamide]", "MIC": "> 880"}]}, {"tested_on": "methicillin-resistant Staphylococcus aureus (MRSA) 63718", "test": "In vitro antibacterial evaluation, broth microdilution MIC, MRSA isolate 63718", "assay_type": "cell-based", "conditions": "clinical isolate MRSA 63718", "units": {"MIC": "µM"}, "values": [{"smiles": "O=C(/C=C/c1ccccc1)Nc1ccc(Br)c(Cl)c1", "note": "[Compound 11, (2E)-N-(4-Bromo-3-chlorophenyl)-3-phenylprop-2-enamide]", "MIC": 192}, {"smiles": "O=C(/C=C/c1ccccc1)Nc1ccc(Br)cc1Br", "note": "[Compound 7, (2E)-N-(2,4-Dibromophenyl)-3-phenylprop-2-enamide]", "MIC": "> 677"}, {"smiles": "O=C(/C=C/c1ccccc1)Nc1ccc(Cl)cc1Br", "note": "[Compound 12, (2E)-N-(2-Bromo-4-chlorophenyl)-3-phenylprop-2-enamide]", "MIC": "> 766"}, {"smiles": "O=C(/C=C/c1ccccc1)Nc1ccc(Cl)cc1Cl", "note": "[Compound 4, (2E)-N-(2,4-Dichlorophenyl)-3-phenylprop-2-enamide]", "MIC": "> 880"}]}, {"tested_on": "methicillin-resistant Staphylococcus aureus (MRSA) SA 630", "test": "In vitro antibacterial evaluation, broth microdilution MIC, MRSA isolate SA 630", "assay_type": "cell-based", "conditions": "clinical isolate MRSA SA 630", "units": {"MIC": "µM"}, "values": [{"smiles": "O=C(/C=C/c1ccccc1)Nc1ccc(Br)c(Cl)c1", "note": "[Compound 11, (2E)-N-(4-Bromo-3-chlorophenyl)-3-phenylprop-2-enamide]", "MIC": 192}, {"smiles": "O=C(/C=C/c1ccccc1)Nc1ccc(Br)cc1Br", "note": "[Compound 7, (2E)-N-(2,4-Dibromophenyl)-3-phenylprop-2-enamide]", "MIC": "> 677"}, {"smiles": "O=C(/C=C/c1ccccc1)Nc1ccc(Cl)cc1Br", "note": "[Compound 12, (2E)-N-(2-Bromo-4-chlorophenyl)-3-phenylprop-2-enamide]", "MIC": "> 766"}, {"smiles": "O=C(/C=C/c1ccccc1)Nc1ccc(Cl)cc1Cl", "note": "[Compound 4, (2E)-N-(2,4-Dichlorophenyl)-3-phenylprop-2-enamide]", "MIC": "> 880"}]}, {"tested_on": "Mycobacterium tuberculosis H37Ra/ATCC 25177", "test": "In vitro antimycobacterial evaluation", "assay_type": "cell-based", "conditions": "M. tuberculosis H37Ra", "excerpt": "Isoniazid (Sigma) was used as the standard.", "units": {"MIC": "µM"}, "values": [{"smiles": "O=C(/C=C/c1ccccc1)Nc1ccc(Br)c(Cl)c1", "note": "[Compound 11, (2E)-N-(4-Bromo-3-chlorophenyl)-3-phenylprop-2-enamide]", "MIC": "> 383"}, {"smiles": "O=C(/C=C/c1ccccc1)Nc1ccc(Br)cc1Br", "note": "[Compound 7, (2E)-N-(2,4-Dibromophenyl)-3-phenylprop-2-enamide]", "MIC": "> 339"}, {"smiles": "O=C(/C=C/c1ccccc1)Nc1ccc(Cl)cc1Br", "note": "[Compound 12, (2E)-N-(2-Bromo-4-chlorophenyl)-3-phenylprop-2-enamide]", "MIC": "> 383"}]}, {"tested_on": "THP1-Blue™ NF-κB cell line", "test": "In vitro cell viability assay (WST-1)", "assay_type": "cell-based", "conditions": "Homo sapiens; THP1-Blue NF-κB cells, 24 h incubation, WST-1, mean ± SEM, n = 6; read-out: Tox IC50 ± SEM", "protocol": "The cytotoxic effect of the tested compounds was specified on THP1-Blue™ NF-κB cell line (Invivogen; San Diego, CA, USA), as described previously. […] The final concentration of DMSO was 0.1% (v/v) in each well. The viability analysis was performed after 24 h incubation with the tested substances using the WST-1 Cell Proliferation Reagent kit (Roche Diagnostics, Basel, Switzerland) according to the manufacturer’s manual. […] The IC50 values were calculated by four-parameter logistic (4PL) analysis from obtained viability curves by GraphPad Prism 8.0.1 (San Diego, CA, USA) software.", "units": {"IC50": "µM"}, "values": [{"smiles": "O=C(/C=C/c1ccccc1)Nc1ccc(Br)c(Cl)c1", "note": "[Compound 11, (2E)-N-(4-Bromo-3-chlorophenyl)-3-phenylprop-2-enamide]", "IC50": "6.5 ± 1"}, {"smiles": "O=C(/C=C/c1ccccc1)Nc1ccc(Br)cc1Br", "note": "[Compound 7, (2E)-N-(2,4-Dibromophenyl)-3-phenylprop-2-enamide]", "IC50": "> 20"}, {"smiles": "O=C(/C=C/c1ccccc1)Nc1ccc(Cl)cc1Br", "note": "[Compound 12, (2E)-N-(2-Bromo-4-chlorophenyl)-3-phenylprop-2-enamide]", "IC50": "> 20"}, {"smiles": "O=C(/C=C/c1ccccc1)Nc1ccc(Cl)cc1Cl", "note": "[Compound 4, (2E)-N-(2,4-Dichlorophenyl)-3-phenylprop-2-enamide]", "IC50": "> 20"}]}, {"tested_on": "NF-κB in THP1-Blue™ NF-κB cells", "test": "Determination of NF-κB activity after LPS stimulation (Quanti-Blue)", "assay_type": "cell-based, human", "conditions": "1 µM compound, 1 h pretreatment, LPS 1 µg/mL, 24 h, vs DMSO group", "protocol": "To evaluate the anti-inflammatory potential of novel compounds, their ability to attenuate the lipopolysaccharide (LPS)-activated pro-inflammatory transcription nuclear factor (NF)-κB was measured as was described previously. Briefly, THP1-Blue™ NF-κB cells were pretreated by tested compounds dissolved in DMSO in the non-toxic concentration 1 µM for 1 h. After LPS (1 µg/mL) stimulation, the NF-κB activity was evaluated by Quanti-Blue medium (Invivogen) according to the manufacturer’s instructions. The results from 3 independent experiments performed in triplicate (n = 9) were analyzed by GraphPad Prism 8.0.1 software. The outlaying values were excluded by ROUT algorithms (Q = 5%).\nFigure 1 Effect of tested compounds on activity of transcription factor NF-κB. […] Then, lipopolysaccharide (LPS) 1 µg/mL was added to trigger the NF-κB activation. The activity of NF-κB was measured 24 h after LPS stimulation using QuantiBlue™ assay. The graph represents mean ± SEM (n = 9). […] Groups were compared with the help of the one-way ANOVA test followed by Fisher’s LSD multiple comparison test. * indicates statistical significance (p < 0.05) to DMSO group; ** indicates statistical significance (p < 0.01) to DMSO group; *** indicates statistical significance (p < 0.001) to DMSO group; **** indicates statistical significance (p < 0.0001) to DMSO group. CA—cinnamic acid.", "values": [{"smiles": "O=C(/C=C/c1ccccc1)Nc1ccc(Cl)cc1Cl", "note": "[Compound 4, (2E)-N-(2,4-Dichlorophenyl)-3-phenylprop-2-enamide]", "increase of NF-κB activity": "10–15%"}]}, {"tested_on": "not listed separately", "test": "Lipophilicity determination by RP-TLC", "assay_type": "physicochemical", "design": "key to RM (MeOH:H2O): RM = log(1/RF - 1), from RP-18 TLC", "conditions": "72:28 MeOH:H2O", "protocol": "(§1) RM values were determined from the RP-18 TLC measurements. […] The volatiles were carefully evaporated, and the plate was developed by MeOH (100%) or MeOH: H2O-HPLC (72:28 v/v) or MeOH: NaOAc buffer, pH 7.4 (72:28 v/v). After drying, the spots were visualized under UV (λ = 365 nm). RM data were obtained from equation: RM = log(1/RF-1). Each experiment was repeated three times.", "values": [{"smiles": "O=C(/C=C/c1ccccc1)Nc1ccc(Br)c(Cl)c1", "note": "[Compound 11, (2E)-N-(4-Bromo-3-chlorophenyl)-3-phenylprop-2-enamide]", "RM (MeOH:H2O)": 0.8388}, {"smiles": "O=C(/C=C/c1ccccc1)Nc1ccc(Br)cc1Br", "note": "[Compound 7, (2E)-N-(2,4-Dibromophenyl)-3-phenylprop-2-enamide]", "RM (MeOH:H2O)": 0.7331}, {"smiles": "O=C(/C=C/c1ccccc1)Nc1ccc(Cl)cc1Br", "note": "[Compound 12, (2E)-N-(2-Bromo-4-chlorophenyl)-3-phenylprop-2-enamide]", "RM (MeOH:H2O)": 0.6553}, {"smiles": "O=C(/C=C/c1ccccc1)Nc1ccc(Cl)cc1Cl", "note": "[Compound 4, (2E)-N-(2,4-Dichlorophenyl)-3-phenylprop-2-enamide]", "RM (MeOH:H2O)": 0.6546}]}, {"tested_on": "not listed separately", "test": "Lipophilicity determination by RP-TLC", "assay_type": "physicochemical", "design": "key to RM (MeOH:H2O): RM = log(1/RF - 1), from RP-18 TLC", "conditions": "72:28 MeOH:NaOAc buffer (pH 7.4)", "protocol": "as §1", "values": [{"smiles": "O=C(/C=C/c1ccccc1)Nc1ccc(Br)c(Cl)c1", "note": "[Compound 11, (2E)-N-(4-Bromo-3-chlorophenyl)-3-phenylprop-2-enamide]", "RM (pH 7.4)": 0.8181}, {"smiles": "O=C(/C=C/c1ccccc1)Nc1ccc(Br)cc1Br", "note": "[Compound 7, (2E)-N-(2,4-Dibromophenyl)-3-phenylprop-2-enamide]", "RM (pH 7.4)": 0.7295}, {"smiles": "O=C(/C=C/c1ccccc1)Nc1ccc(Cl)cc1Br", "note": "[Compound 12, (2E)-N-(2-Bromo-4-chlorophenyl)-3-phenylprop-2-enamide]", "RM (pH 7.4)": 0.6484}, {"smiles": "O=C(/C=C/c1ccccc1)Nc1ccc(Cl)cc1Cl", "note": "[Compound 4, (2E)-N-(2,4-Dichlorophenyl)-3-phenylprop-2-enamide]", "RM (pH 7.4)": 0.5495}]}, {"tested_on": "not listed separately", "test": "Lipophilicity determination by RP-TLC", "assay_type": "physicochemical", "design": "key to RM (MeOH:H2O): RM = log(1/RF - 1), from RP-18 TLC", "conditions": "100% MeOH", "protocol": "as §1", "values": [{"smiles": "O=C(/C=C/c1ccccc1)Nc1ccc(Br)c(Cl)c1", "note": "[Compound 11, (2E)-N-(4-Bromo-3-chlorophenyl)-3-phenylprop-2-enamide]", "RM (100% MeOH)": "−0.3376"}, {"smiles": "O=C(/C=C/c1ccccc1)Nc1ccc(Br)cc1Br", "note": "[Compound 7, (2E)-N-(2,4-Dibromophenyl)-3-phenylprop-2-enamide]", "RM (100% MeOH)": "−0.3098"}, {"smiles": "O=C(/C=C/c1ccccc1)Nc1ccc(Cl)cc1Br", "note": "[Compound 12, (2E)-N-(2-Bromo-4-chlorophenyl)-3-phenylprop-2-enamide]", "RM (100% MeOH)": "−0.4072"}, {"smiles": "O=C(/C=C/c1ccccc1)Nc1ccc(Cl)cc1Cl", "note": "[Compound 4, (2E)-N-(2,4-Dichlorophenyl)-3-phenylprop-2-enamide]", "RM (100% MeOH)": "−0.3933"}]}, {"tested_on": "not given", "test": "not given", "conditions": "RP-HPLC, 72:28 MeOH:H2O", "values": [{"smiles": "O=C(/C=C/c1ccccc1)Nc1ccc(Br)c(Cl)c1", "note": "[Compound 11, (2E)-N-(4-Bromo-3-chlorophenyl)-3-phenylprop-2-enamide]", "Logk": 0.6611}, {"smiles": "O=C(/C=C/c1ccccc1)Nc1ccc(Br)cc1Br", "note": "[Compound 7, (2E)-N-(2,4-Dibromophenyl)-3-phenylprop-2-enamide]", "Logk": 0.6152}, {"smiles": "O=C(/C=C/c1ccccc1)Nc1ccc(Cl)cc1Br", "note": "[Compound 12, (2E)-N-(2-Bromo-4-chlorophenyl)-3-phenylprop-2-enamide]", "Logk": 0.5476}, {"smiles": "O=C(/C=C/c1ccccc1)Nc1ccc(Cl)cc1Cl", "note": "[Compound 4, (2E)-N-(2,4-Dichlorophenyl)-3-phenylprop-2-enamide]", "Logk": 0.5278}]}, {"tested_on": "not listed separately", "test": "physchem", "conditions": "pH 6.5", "values": [{"smiles": "O=C(/C=C/c1ccccc1)Nc1ccc(Br)c(Cl)c1", "note": "[Compound 11, (2E)-N-(4-Bromo-3-chlorophenyl)-3-phenylprop-2-enamide]", "chromatographic logD": 0.691}, {"smiles": "O=C(/C=C/c1ccccc1)Nc1ccc(Br)cc1Br", "note": "[Compound 7, (2E)-N-(2,4-Dibromophenyl)-3-phenylprop-2-enamide]", "chromatographic logD": 0.652}, {"smiles": "O=C(/C=C/c1ccccc1)Nc1ccc(Cl)cc1Br", "note": "[Compound 12, (2E)-N-(2-Bromo-4-chlorophenyl)-3-phenylprop-2-enamide]", "chromatographic logD": 0.586}, {"smiles": "O=C(/C=C/c1ccccc1)Nc1ccc(Cl)cc1Cl", "note": "[Compound 4, (2E)-N-(2,4-Dichlorophenyl)-3-phenylprop-2-enamide]", "chromatographic logD": 0.569}]}, {"tested_on": "not listed separately", "test": "physchem", "conditions": "pH 7.4", "values": [{"smiles": "O=C(/C=C/c1ccccc1)Nc1ccc(Br)c(Cl)c1", "note": "[Compound 11, (2E)-N-(4-Bromo-3-chlorophenyl)-3-phenylprop-2-enamide]", "chromatographic logD": 0.713}, {"smiles": "O=C(/C=C/c1ccccc1)Nc1ccc(Br)cc1Br", "note": "[Compound 7, (2E)-N-(2,4-Dibromophenyl)-3-phenylprop-2-enamide]", "chromatographic logD": 0.67}, {"smiles": "O=C(/C=C/c1ccccc1)Nc1ccc(Cl)cc1Br", "note": "[Compound 12, (2E)-N-(2-Bromo-4-chlorophenyl)-3-phenylprop-2-enamide]", "chromatographic logD": 0.606}, {"smiles": "O=C(/C=C/c1ccccc1)Nc1ccc(Cl)cc1Cl", "note": "[Compound 4, (2E)-N-(2,4-Dichlorophenyl)-3-phenylprop-2-enamide]", "chromatographic logD": 0.589}]}]}
